Drawing on patent US20210261512A1, “NOVEL COMPOUNDS” (INFLAZOME LIMITED, priority 2018, published 2021), this text covers IC50 for 28 compounds.

This assay deals with NLRP3 (Homo sapiens, UniProt Q96P20). Kind of assay: THP-1 cells pyroptosis assay. Type of assay: cell-based. Details: Seed THP-1 cells (25,000 cells/well) containing 1.0 μg/ml LPS; host or cells: THP-1. To be noted: LPS 1.0 μg/ml, nigericin 5 μM, resazurin readout, 10 μM top dose (Example 2: top dose of 30 μM). The procedure: THP-1 cells (ATCC #TIB-202) were grown in RPMI containing L-glutamine (Gibco #11835) supplemented with imM sodium pyruvate (Sigma #S8636) and penicillin (100 units/ml)/streptomycin (0.1 mg/ml) (Sigma #P4333) in 10% Fetal Bovine Serum (FBS) (Sigma #F0804). The cells were routinely passaged and grown to confluency (˜10^6 cells/ml). On the day of the experiment, THP-1 cells were harvested and resuspended into RPMI medium (without FBS). The cells were then counted and viability (>90%) checked by Trypan blue (Sigma #T8154). Appropriate dilutions were made to give a concentration of 625,000 cells/ml. To this diluted cell solution was added LPS (Sigma #L4524) to give a 1 μg/ml Final Assay Concentration (FAC). 40 μl of the final preparation was aliquoted into each well of a 96-well plate. The plate thus prepared was used for compound screening.
The following method step-by-step assay was followed for compound screening. • 1. Seed THP-1 cells (25,000 cells/well) containing 1.0 μg/ml LPS in 40 μl of RPMI medium (without FBS) in 96-well, black walled, clear bottom cell culture plates coated with poly-D-lysine (VWR #734-0317) • 2. Add 5 μl compound (8 points four-fold dilution or 8 points half-log dilution, with 10 μM top dose, unless stated otherwise) or vehicle (DMSO 0.1% FAC) to the appropriate wells • 3. Incubate for 3 hrs at 37° C. and 5% CO2 • 4. Add 5 μl nigericin (Sigma #N7143) (FAC 5 μM) to all wells • 5. Incubate for 1 hr at 37° C. and 5% CO2 • 6. At the end of the incubation period, spin plates at 300×g for 3 mins and remove supernatant • 7. Then add 50 μl of resazurin (Sigma #R^7017) (FAC 100 μM resazurin in RPMI medium without FBS) and incubate plates for a further 1-2 hrs at 37° C. and 5% CO2 • 8. Plates were read in an Envision reader at Ex 560 nm and Em 590 nm • 9. IC50 data is fitted to a non-linear regression equation (log inhibitor vs response-variable slope 4-parameters)
A general note: Resazurin is reduced to fluorescent resorufin, in cell work by metabolically active cells.

Molecules are shown by their SMILES. Some results are limits rather than exact numbers.

NLRP3, sequence (Q96P20 whole entry): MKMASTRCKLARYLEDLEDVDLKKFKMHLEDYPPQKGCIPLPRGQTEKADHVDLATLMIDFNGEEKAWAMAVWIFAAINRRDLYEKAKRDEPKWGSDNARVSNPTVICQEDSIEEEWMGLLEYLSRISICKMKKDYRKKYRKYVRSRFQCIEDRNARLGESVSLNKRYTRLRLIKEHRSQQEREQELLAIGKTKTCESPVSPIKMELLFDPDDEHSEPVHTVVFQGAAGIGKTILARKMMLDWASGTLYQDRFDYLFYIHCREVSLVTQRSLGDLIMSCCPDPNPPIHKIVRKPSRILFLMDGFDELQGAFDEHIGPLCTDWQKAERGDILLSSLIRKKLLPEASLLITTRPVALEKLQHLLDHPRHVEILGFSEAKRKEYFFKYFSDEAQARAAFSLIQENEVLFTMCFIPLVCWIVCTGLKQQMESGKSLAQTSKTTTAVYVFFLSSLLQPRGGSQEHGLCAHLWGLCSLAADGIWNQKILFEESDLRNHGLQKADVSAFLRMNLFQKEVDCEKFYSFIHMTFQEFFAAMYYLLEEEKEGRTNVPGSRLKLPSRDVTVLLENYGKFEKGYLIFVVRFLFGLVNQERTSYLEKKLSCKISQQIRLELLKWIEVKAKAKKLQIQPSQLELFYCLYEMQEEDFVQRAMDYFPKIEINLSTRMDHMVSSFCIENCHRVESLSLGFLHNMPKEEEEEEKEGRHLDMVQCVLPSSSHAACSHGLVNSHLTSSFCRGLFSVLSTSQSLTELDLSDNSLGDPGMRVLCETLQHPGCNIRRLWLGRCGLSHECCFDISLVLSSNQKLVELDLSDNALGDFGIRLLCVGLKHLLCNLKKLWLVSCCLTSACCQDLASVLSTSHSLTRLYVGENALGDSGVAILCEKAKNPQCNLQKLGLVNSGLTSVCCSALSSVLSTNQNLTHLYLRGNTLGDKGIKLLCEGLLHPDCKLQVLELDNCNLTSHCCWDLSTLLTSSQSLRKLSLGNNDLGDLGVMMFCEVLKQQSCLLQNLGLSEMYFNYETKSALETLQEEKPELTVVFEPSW

On to `COc1ccccc1S(=O)(=O)c1nnc(Nc2c3c(cc4c2CCC4)CCC3)[nH]1` [Example 173, N-(1,2,3,5,6,7-hexahydro-s-indacen-4-yl)-5-((2-methoxyphenyl)sulfonyl)-4H-1,2,4-triazol-3-amine], for which the half-maximal inhibitory concentration (IC50) (in general, the concentration that inhibits the measured activity by half) was no more than 1 µM. Take `O=S(=O)(NCCN1CCOCC1)c1nnc(Nc2c3c(cc4c2CCC4)CCC3)[nH]1` [Example 129, 5-((1,2,3,5,6,7-hexahydro-s-indacen-4-yl)amino)-N-(2-morpholinoethyl)-4H-1,2,4-triazole-3-sulfonamide]: the concentration for half-maximal inhibition (IC50) was no more than 5 µM.

The compound `CS(=O)(=O)c1nnc(Nc2c(-c3ccnc(OCCO)c3)ccc3c2CCC3)[nH]1` [Example 238, 2-((4-(4-((5-(methylsulfonyl)-4H-1,2,4-triazol-3-yl)amino)-2,3-dihydro-1H-inden-5-yl)pyridin-2-yl)oxy)ethan-1-ol] registered an IC50 of no more than 10 µM. As for `CN1CCC(COc2cc(-c3ccc4c(c3Nc3nnc(S(C)(=O)=O)[nH]3)CCC4)ccn2)C1` (stereo not shown) [Example 358, N-(5-(2-((1-methylpyrrolidin-3-yl)methoxy)pyridin-4-yl)-2,3-dihydro-1H-inden-4-yl)-5-(methylsulfonyl)-4H-1,2,4-triazol-3-amine], the concentration for half-maximal inhibition (IC50) is no more than 10 µM. With `O=S(=O)(Cc1ccccn1)c1nnc(Nc2c3c(cc4c2CCC4)CCC3)[nH]1` [Example 71, N-(1,2,3,5,6,7-hexahydro-s-indacen-4-yl)-3-((pyridin-2-ylmethyl)sulfonyl)-1H-1,2,4-triazol-5-amine] the figure was no more than 10 µM; with `CC(C)(O)C1CCCN(S(=O)(=O)c2nnc(Nc3c4c(cc5c3CCC5)CCC4)[nH]2)C1` (stereo not shown) [Example 315, 2-(1-((5-((1,2,3,5,6,7-hexahydro-s-indacen-4-yl)amino)-4H-1,2,4-triazol-3-yl)sulfonyl)piperidin-3-yl)propan-2-ol], no more than 5 µM; with `CNC(=O)CS(=O)(=O)c1nnc(Nc2c3c(cc4c2CCC4)CCC3)[nH]1` [Example 68, 2-((5-((1,2,3,5,6,7-hexahydro-s-indacen-4-yl)amino)-4H-1,2,4-triazol-3-yl)sulfonyl)-N-methylacetamide], no more than 5 µM. The result for `O=S(=O)(c1nnc(Nc2c3c(cc4c2CCC4)CCC3)[nH]1)N1CC[C@H](CO)C1` [Example 284, (S)-(1-((5-((1,2,3,5,6,7-hexahydro-s-indacen-4-yl)amino)-4H-1,2,4-triazol-3-yl)sulfonyl)pyrrolidin-3-yl)methanol] reads no more than 10 µM; that for `CN1CCC(N(C)S(=O)(=O)c2nnc(Nc3c4c(cc5c3CCC5)CCC4)[nH]2)CC1` [Example 90, 5-((1,2,3,5,6,7-hexahydro-s-indacen-4-yl)amino)-N-methyl-N-(1-methylpiperidin-4-yl)-4H-1,2,4-triazole-3-sulfonamide], no more than 10 µM. The result for `Cc1ccccc1S(=O)(=O)c1nnc(Nc2c3c(cc4c2CCC4)CCC3)[nH]1` [Example 187, N-(1,2,3,5,6,7-hexahydro-s-indacen-4-yl)-5-(o-tolylsulfonyl)-4H-1,2,4-triazol-3-amine] reads no more than 1 µM. As to `O=S(=O)(c1nnc(Nc2c3c(cc4c2CCC4)CCC3)[nH]1)N1CCC2(CC1)CNC2` [Example 287, 5-((2,7-diazaspiro[35]nonan-7-yl)sulfonyl)-N-(1,2,3,5,6,7-hexahydro-s-indacen-4-yl)-4H-1,2,4-triazol-3-amine], the IC50 is no more than 10 µM. The result for `Cn1ncc(S(=O)(=O)c2nnc(Nc3c4c(cc5c3CCC5)CCC4)[nH]2)c1C#N` [Example 355, 4-((5-((1,2,3,5,6,7-hexahydro-s-indacen-4-yl)amino)-4H-1,2,4-triazol-3-yl)sulfonyl)-1-methyl-1H-pyrazole-5-carbonitrile] reads no more than 5 µM; that for `CCNCCCS(=O)(=O)c1nnc(Nc2c3c(cc4c2CCC4)CCC3)[nH]1` [Example 55, 5-((3-(ethylamino)propyl)sulfonyl)-N-(1,2,3,5,6,7-hexahydro-s-indacen-4-yl)-4H-1,2,4-triazol-3-amine], no more than 5 µM; that for `CC(C)c1cc(F)cc(C(C)C)c1Nc1nnc(S(=O)(=O)c2ccccc2)[nH]1` [Example 42, N-(4-fluoro-2,6-diisopropylphenyl)-3-(phenylsulfonyl)-1H-1,2,4-triazol-5-amine], no more than 10 µM.

For the compound `CN(C)c1cccc(CS(=O)(=O)c2nnc(Nc3c4c(cc5c3CCC5)CCC4)[nH]2)c1` [Example 74, 3-((3-(dimethylamino)benzyl)sulfonyl)-N-(1,2,3,5,6,7-hexahydro-s-indacen-4-yl)-1H-1,2,4-triazol-5-amine], the IC50 was no more than 5 µM. Compound `CCN1CCCC12CCN(S(=O)(=O)c1nnc(Nc3c4c(cc5c3CCC5)CCC4)[nH]1)CC2` [Example 256, 5-((1-ethyl-1,8-diazaspiro[4.5]decan-8-yl)sulfonyl)-N-(1,2,3,5,6,7-hexahydro-s-indacen-4-yl)-4H-1,2,4-triazol-3-amine] registered an IC50 of no more than 0.5 µM. The result for `O=S(=O)(c1nnc(Nc2c3c(cc4c2CCC4)CCC3)[nH]1)C1CNC1` [Example 21, 5-(azetidin-3-ylsulfonyl)-N-(1,2,3,5,6,7-hexahydro-s-indacen-4-yl)-4H-1,2,4-triazol-3-amine] reads no more than 10 µM; that for `CN1Cc2ccc(S(=O)(=O)c3n[nH]c(Nc4c5c(cc6c4CCC6)CCC5)n3)cc2C1=O` [Example 180, 6-((5-((1,2,3,5,6,7-hexahydro-s-indacen-4-yl)amino)-1H-1,2,4-triazol-3-yl)sulfonyl)-2-methylisoindolin-1-one], no more than 5 µM; that for `CS(=O)(=O)c1nnc(Nc2c(-c3ccnc(OC4CCNCC4)c3)ccc3c2CCC3)[nH]1` [Example 357, 5-(methylsulfonyl)-N-(5-(2-(piperidin-4-yloxy)pyridin-4-yl)-2,3-dihydro-1H-inden-4-yl)-4H-1,2,4-triazol-3-amine], no more than 10 µM. As to `CN1CC2CCN(S(=O)(=O)c3nnc(Nc4c5c(cc6c4CCC6)CCC5)[nH]3)C2C1` (stereo not shown) [Example 142, N-(1,2,3,5,6,7-hexahydro-s-indacen-4-yl)-5-((5-methylhexahydropyrrolo[3,4-b]pyrrol-1 (2H)-yl)sulfonyl)-4H-1,2,4-triazol-3-amine], the IC50 is no more than 5 µM.

`O=S(=O)(CC1CCCN1)c1nnc(Nc2c3c(cc4c2CCC4)CCC3)[nH]1` (stereo not shown) [Example 62, N-(1,2,3,5,6,7-hexahydro-s-indacen-4-yl)-3-((pyrrolidin-2-ylmethyl)sulfonyl)-1H-1,2,4-triazol-5-amine]: the IC50 was no more than 10 µM. The result for `COCC(C)Oc1cc(-c2ccc3c(c2Nc2nnc(S(C)(=O)=O)[nH]2)CCC3)ccn1` (stereo not shown) [Example 237, N-(5-(2-((1-methoxypropan-2-yl)oxy)pyridin-4-yl)-2,3-dihydro-1H-inden-4-yl)-5-(methylsulfonyl)-4H-1,2,4-triazol-3-amine] reads no more than 5 µM; that for `O=S(=O)(c1ccn(C2CC2)n1)c1nnc(Nc2c3c(cc4c2CCC4)CCC3)[nH]1` [Example 354, 5-((1-cyclopropyl-1H-pyrazol-3-yl)sulfonyl)-N-(1,2,3,5,6,7-hexahydro-s-indacen-4-yl)-4H-1,2,4-triazol-3-amine], no more than 0.5 µM. Take `COCCCS(=O)(=O)c1nnc(Nc2c3c(cc4c2CCC4)CCC3)[nH]1` [Example 65, N-(1,2,3,5,6,7-hexahydro-s-indacen-4-yl)-3-((3-methoxypropyl)sulfonyl)-1H-1,2,4-triazol-5-amine]: the half-maximal inhibitory concentration (IC50) is no more than 10 µM. With `CN(C)CC1CCN(S(=O)(=O)c2nnc(Cc3c4c(cc5c3CCC5)CCC4)[nH]2)C1` (stereo not shown) [Example 158, 1-(1-((5-((1,2,3,5,6,7-hexahydro-s-indacen-4-yl)methyl)-4H-1,2,4-triazol-3-yl)sulfonyl)pyrrolidin-3-yl)-N,N-dimethylmethanamine] the figure was no more than 5 µM; with `CN1CC(CNS(=O)(=O)c2nnc(Nc3c4c(cc5c3CCC5)CCC4)[nH]2)C1` [Example 88, 5-((1,2,3,5,6,7-hexahydro-s-indacen-4-yl)amino)-N-((1-methazetidin-3-yl)methyl)-4H-1,2,4-triazole-3-sulfonamide], no more than 5 µM. As to `Cc1cc2c(c(Nc3nnc(S(C)(=O)=O)[nH]3)c1-c1ccnc(OC3CCNCC3)c1)CCC2` [Example 368, N-(6-methyl-5-(2-(piperidin-4-yloxy)pyridin-4-yl)-2,3-dihydro-1H-inden-4-yl)-5-(methylsulfonyl)-4H-1,2,4-triazol-3-amine], the IC50 was no more than 5 µM.

With `O=C1CCC(CNS(=O)(=O)c2nnc(Nc3c4c(cc5c3CCC5)CCC4)[nH]2)N1` (stereo not shown) [Example 121, 5-((1,2,3,5,6,7-hexahydro-s-indacen-4-yl)amino)-N-((5-oxopyrrolidin-2-yl)methyl)-4H-1,2,4-triazole-3-sulfonamide], the IC50 was no more than 10 µM.
